In ChEMBL document CHEMBL4402554, “Discovery of a Bromodomain and Extraterminal Inhibitor with a Low Predicted Human Dose through Synergistic Use of Encoded Library Technology and Fragment Screening” (J Med Chem, 2020):
Where “and” joins values, the source holds several entries; their conditions need not be identical. Equal values may be shown once. Each block holds one compound with its values, some of them ahead of it. Calls of active or inactive are those of the source. The calls are words filed in the database; no cut-off is given here.

Tests used:
[1] = target: T1, Bromodomain-containing protein 4 (Homo sapiens, UniProt O60885, Y390A); test: Displacement of Alexa Fluor 647 labelled ligand from recombinant human N-terminal His6-tagged BRD4 BD1 (1 to 477 residues)/BD2 Y390A mutant incubated for 30 mins by TR-FRET assay
[2] = Lipophilicity, log D of the compound at pH 7.4 by chromatographic method; type: physicochemical; settings: buffer
[3] = target: T1, Bromodomain-containing protein 4; test: Displacement of Alexa Fluor 647 labelled ligand from recombinant human N-terminal His6-tagged BRD4 BD1 (1 to 477 residues)/BD2 Y390A mutant incubated for 60 mins by fluorescence polarization assay
[4] = tested on: Blood; test: Inhibition of LPS-induced IL6 production in human whole blood preincubated for 30 mins followed by LPS addition measured after 18 to 24 hrs; type: functional, tissue-based
[5] = tested on: Blood; test: Inhibition of LPS-induced MCP1 production in human whole blood preincubated for 30 mins followed by LPS addition measured after 18 to 24 hrs; type: functional, tissue-based
[6] = target: Bromodomain adjacent to zinc finger domain protein 2A (Homo sapiens, UniProt Q9UIF9); test: Inhibition of BAZ2A (unknown origin) by TR-FRET assay
[7] = Metabolic stability in rat liver microsomes; type: ADME, Microsome
[8] = Stability in rat hepatocytes; type: ADME, cell-based, Hepatocyte
[9] = Fraction unbound in rat plasma at 1 mg/kg, iv; type: ADME, organism-based
[10] = Unbound clearance in rat at 1 mg/kg, iv; type: ADME, organism-based; settings: in vivo
[11] = Clearance in rat at 1 mg/kg, iv; type: ADME, organism-based; settings: in vivo
[12] = Volume of distribution at steady state in rat at 1 mg/kg, iv; type: ADME, organism-based; settings: in vivo, read-out: Vdss
[13] = Half life in rat at 1 mg/kg, iv; type: ADME, organism-based; settings: in vivo
[14] = Metabolic stability in dog liver microsomes; type: ADME, Canis lupus familiaris, Microsome
[15] = Stability in dog hepatocytes; type: ADME, cell-based, Canis lupus familiaris, Hepatocyte
[16] = Fraction unbound in dog plasma at 0.5 mg/kg, iv; type: ADME, organism-based, Canis lupus familiaris
[17] = Unbound clearance in dog at 0.5 mg/kg, iv; type: ADME, organism-based, Canis lupus familiaris; settings: in vivo
[18] = Volume of distribution at steady state in dog at 0.5 mg/kg, iv; type: ADME, organism-based, Canis lupus familiaris; settings: in vivo; for Vd: read-out: Vdss
[19] = Half life in dog at 0.5 mg/kg, iv; type: ADME, organism-based, Canis lupus familiaris; settings: in vivo
[20] = Oral bioavailability in dog at 1 mg/kg; type: ADME, organism-based, Canis lupus familiaris; settings: in vivo
[21] = Metabolic stability in human liver microsomes; type: ADME, Microsome
[22] = Stability in human hepatocytes; type: ADME, cell-based, Hepatocyte
[23] = Fraction unbound in human plasma; type: ADME, cell-free
[24] = Metabolic stability in CD-1 mouse liver microsomes; type: ADME, Microsome
[25] = Stability in CD-1 mouse hepatocytes; type: ADME, cell-based, Hepatocyte
[26] = AUC (0 to infinity) in CD-1 mouse at 3 mg/kg, po; type: ADME, organism-based; set-up: dose 3 mg/kg, route oral, time infinity; settings: in vivo
[27] = AUC (0 to infinity) in rat at 3 mg/kg, po; type: ADME, organism-based; set-up: dose 3 mg/kg, route oral, time infinity; settings: in vivo
[28] = AUC (0 to infinity) in rat at 30 mg/kg, po; type: ADME, organism-based; set-up: dose 30 mg/kg, route oral, time infinity; settings: in vivo
[29] = Oral bioavailability in rat at 30 mg/kg; type: ADME, organism-based; settings: in vivo
[30] = AUC (0 to infinity) in dog at 1.5 mg/kg, po; type: ADME, organism-based, Canis lupus familiaris; set-up: dose 1.5 mg/kg, route oral, time infinity; settings: in vivo
[31] = tested on: Mus musculus; test: Antiinflammatory activity in LPS-challenged CD-1 mouse assessed as reduction in cytokine production at 1 to 10 mg/kg, po administrated as single dose 30 mins prior to LPS challenge measured after 5 hrs by immunoassay; type: functional, organism-based
[32] = tested on: Mus musculus; test: Antiinflammatory activity in TNP-KLH- treated CD-1 mouse T cell-dependent immunization model assessed as IgG1 level at 3 mg/kg, po qd treated for 0.5 hrs followed by TNP-KLH treatment and measured after 14 days by ELISA analysis; type: functional
[33] = tested on: Mus musculus; test: Antiinflammatory activity in TNP-KLH- treated CD-1 mouse T cell-dependent immunization model assessed as IgG1 level at 0.3 mg/kg, po qd treated for 0.5 hrs followed by TNP-KLH treatment and measured after 14 days by ELISA analysis; type: functional
[34] = tested on: Mus musculus; test: Antiinflammatory activity in TNP-KLH- treated CD-1 mouse T cell-dependent immunization model assessed as IgG1 level at 3 mg/kg, po qod treated for 0.5 hrs followed by TNP-KLH treatment and measured after 14 days by ELISA analysis; type: functional
[35] = Oral bioavailability in rat at 3 mg/kg; settings: in vivo
[36] = species on record: Homo sapiens; test: Selectivity ratio of pIC50 for Alexa Fluor 647 labelled ligand from recombinant human N-terminal His6-tagged BRD4 BD1 (1 to 477 residues)/BD2 Y390A mutant to pIC50 for BAZ2A (unknown origin)
[37] = Solubility of compound in pH 6.5 FASSIF at 1 mg incubated for 4 hrs by HPLC-UV analysis; type: physicochemical
[38] = Clearance in dog at 0.5 mg/kg, iv; type: ADME, organism-based, Canis lupus familiaris; settings: in vivo

Bromodomain adjacent to zinc finger domain protein 2A, sequence (Q9UIF9 whole entry, the tested form may be a part): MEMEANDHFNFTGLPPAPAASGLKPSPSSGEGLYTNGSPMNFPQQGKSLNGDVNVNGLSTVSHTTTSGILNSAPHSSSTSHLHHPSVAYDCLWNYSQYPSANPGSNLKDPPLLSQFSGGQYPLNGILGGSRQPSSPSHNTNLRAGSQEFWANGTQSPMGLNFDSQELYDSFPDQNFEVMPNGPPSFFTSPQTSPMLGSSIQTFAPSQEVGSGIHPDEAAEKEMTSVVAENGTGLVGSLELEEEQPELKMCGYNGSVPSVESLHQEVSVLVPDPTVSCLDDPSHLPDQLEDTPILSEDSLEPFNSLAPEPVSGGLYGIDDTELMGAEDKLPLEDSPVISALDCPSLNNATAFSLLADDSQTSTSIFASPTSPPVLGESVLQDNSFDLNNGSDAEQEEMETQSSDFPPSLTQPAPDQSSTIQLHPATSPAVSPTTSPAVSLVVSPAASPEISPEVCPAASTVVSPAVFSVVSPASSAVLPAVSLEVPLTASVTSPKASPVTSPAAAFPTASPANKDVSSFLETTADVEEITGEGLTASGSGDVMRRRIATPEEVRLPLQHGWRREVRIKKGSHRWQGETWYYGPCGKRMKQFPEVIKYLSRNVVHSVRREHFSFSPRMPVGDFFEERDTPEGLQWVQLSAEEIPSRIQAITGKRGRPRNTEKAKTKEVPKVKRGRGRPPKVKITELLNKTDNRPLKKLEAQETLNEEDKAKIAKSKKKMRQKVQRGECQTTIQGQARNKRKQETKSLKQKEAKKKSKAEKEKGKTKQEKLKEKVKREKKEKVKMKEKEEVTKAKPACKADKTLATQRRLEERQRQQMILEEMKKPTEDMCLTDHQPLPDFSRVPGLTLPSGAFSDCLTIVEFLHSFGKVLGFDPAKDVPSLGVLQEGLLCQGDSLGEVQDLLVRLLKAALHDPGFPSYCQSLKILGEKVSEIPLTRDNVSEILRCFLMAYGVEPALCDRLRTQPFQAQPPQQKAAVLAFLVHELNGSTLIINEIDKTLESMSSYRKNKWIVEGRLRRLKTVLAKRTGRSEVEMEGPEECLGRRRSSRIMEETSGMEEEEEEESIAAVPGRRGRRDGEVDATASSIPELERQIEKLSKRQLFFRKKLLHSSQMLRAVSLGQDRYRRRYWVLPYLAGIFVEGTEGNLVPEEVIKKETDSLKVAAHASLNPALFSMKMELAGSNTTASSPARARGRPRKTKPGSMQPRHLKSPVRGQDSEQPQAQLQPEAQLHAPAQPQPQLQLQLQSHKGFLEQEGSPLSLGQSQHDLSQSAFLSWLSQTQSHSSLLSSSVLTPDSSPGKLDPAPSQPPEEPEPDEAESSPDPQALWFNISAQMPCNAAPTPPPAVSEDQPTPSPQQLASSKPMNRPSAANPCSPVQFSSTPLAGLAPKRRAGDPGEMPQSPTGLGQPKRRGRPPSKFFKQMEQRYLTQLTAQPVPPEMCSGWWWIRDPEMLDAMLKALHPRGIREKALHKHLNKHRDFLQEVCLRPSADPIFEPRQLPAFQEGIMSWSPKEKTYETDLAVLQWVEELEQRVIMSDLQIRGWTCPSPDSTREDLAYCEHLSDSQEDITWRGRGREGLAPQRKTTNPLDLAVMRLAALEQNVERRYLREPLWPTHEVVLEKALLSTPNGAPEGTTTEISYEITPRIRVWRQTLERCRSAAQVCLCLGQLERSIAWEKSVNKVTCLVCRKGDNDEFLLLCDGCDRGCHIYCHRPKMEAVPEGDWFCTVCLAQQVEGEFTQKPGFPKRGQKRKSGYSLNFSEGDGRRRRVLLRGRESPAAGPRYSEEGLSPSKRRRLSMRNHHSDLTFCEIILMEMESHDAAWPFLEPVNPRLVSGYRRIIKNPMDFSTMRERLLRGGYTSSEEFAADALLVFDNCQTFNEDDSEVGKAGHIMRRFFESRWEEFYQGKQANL

Structure (SMILES): Cc1cc(-c2nc3cc(N(C)C)ccc3n2CC2CCOCC2)cn(C)c1=O
chromatographic logD [2]: 2.9

Structure (SMILES): O=C(CO)N1CCC(Cn2c(-c3ccc(=O)[nH]c3)nc3ccccc32)CC1
IC50 [1]: > 50100 nM

Structure (SMILES): CNC(=O)c1ccc2c(c1)nc(-c1cc(C)c(O)c(C)c1)n2CC1CCN(C(C)=O)CC1
IC50 [3]: 251 nM | chromatographic logD [2]: 2

Structure (SMILES): Cn1cc(-c2nc3ccccc3n2CC2CCN(C(=O)CO)CC2)ccc1=O
IC50 [1]: 7940 nM

Structure (SMILES): CC(=O)N1CCC(Cn2c(-c3cc(C)c(O)c(C)c3)nc3ccccc32)C1 (racemic)
IC50 [1]: 2510 nM

Structure (SMILES): Cn1cc(-c2nc[nH]c2-c2ccc(F)cc2)ccc1=O
IC50 [1]: 6310 nM

Structure (SMILES): COCC(COC)n1c(-c2cc(C)c(=O)n(C)c2)nc2cc(N3CCOCC3)ccc21
IC50 [4]: 20 nM | IC50 [5]: 25.1 nM | IC50 [6]: 63100 nM | Stability [7]: < 0.46 mL/min/g | Stability [8]: < 0.8 mL/min/g | fraction unbound [9]: 0.69 | CL free [10]: 24 mL/min/kg | clearance [11]: 17 mL/min/kg | Vd [12]: 2.3 L/kg | half-life [13]: 3.8 h | Stability [14]: < 0.37 mL/min/g | Stability [15]: < 1.3 mL/min/g | fraction unbound [16]: 0.5 | CL free [17]: 4 mL/min/kg | Vdss [18]: 0.9 L/kg | t1/2 [19]: 5.3 h | bioavailability [20]: 101% | Stability [21]: < 0.4 mL/min/g | Stability [22]: < 0.87 mL/min/g | fraction unbound [23]: 0.72 | Stability [24]: < 0.48 mL/min/g | Stability [25]: < 1 mL/min/g | AUC(0-inf) [26]: 3620 ng·h/mL | AUC(0-inf) [27]: 2610 ng·h/mL | AUC(0-inf) [28]: 27000 ng·h/mL | bioavailability [29]: 93% | AUC(0-inf) [30]: 12500 ng·h/mL | Activity [31]: Active | Activity [32]: 20% | Activity [33]: 65% | Activity [34]: 65% | bioavailability [35]: 94%

Structure (SMILES): CCC(C1CCOCC1)n1c(-c2cc(C)c(=O)n(C)c2)nc2ccccc21 (configuration not stated)
IC50 [1]: 794 nM and 158 nM | Ratio pIC50 [36]: > 2.1 and 1.6

Structure (SMILES): CNC(=O)c1ccc2c(c1)nc(-c1cc(C)c(O)c(C)c1)n2CC1CCNCC1
IC50 [1]: 2000 nM | chromatographic logD [2]: 0.8

Structure (SMILES): Cc1cc(-c2nc3ccccc3n2C(C)C2CCOCC2)cn(C)c1=O (configuration not stated)
Ratio pIC50 [36]: 1.4 and 0.9

Structure (SMILES): Cc1cc(-c2nc3ccccc3n2CC2CCCOC2)cn(C)c1=O (configuration not stated)
IC50 [1]: 31.6 nM and 25.1 nM | IC50 [6]: 25100 nM and 79400 nM

Structure (SMILES): Cc1cc(-c2nc3ccccc3n2CC2CCN(C(=O)CO)CC2)c[nH]c1=O
IC50 [1]: 1580 nM

Structure (SMILES): Cc1cc(-c2nc3ccccc3n2CC2CCOCC2)cn(C)c1=O
IC50 [4]: 200 nM | IC50 [5]: 251 nM | IC50 [6]: 316 nM | solubility at 4 h [37]: > 1000 µg/mL | Stability [7]: 3.2 mL/min/g | Stability [8]: 17 mL/min/g | fraction unbound [9]: 0.55 | CL free [10]: 149 mL/min/kg | clearance [11]: 82 mL/min/kg | Vd [12]: 1.4 L/kg | half-life [13]: 0.2 h | Stability [14]: < 0.37 mL/min/g | Stability [15]: < 1.3 mL/min/g | fraction unbound [16]: 0.47 | clearance [38]: 8 mL/min/kg | CL free [17]: 17 mL/min/kg | Vd [18]: 1.4 L/kg | half-life [19]: 2.3 h | bioavailability [20]: 97% | Stability [21]: 0.83 mL/min/g | Stability [22]: < 0.87 mL/min/g | fraction unbound [23]: 0.4

More lines, in order of falling IC50 [1], values ahead:

IC50 [1]: 1580 nM
Structure (SMILES): CC(=O)N[C@H]1CC[C@H](Cn2c(-c3cc(C)c(O)c(C)c3)nc3ccccc32)CC1

IC50 [1]: 1580 nM
Structure (SMILES): CC(=O)N1CC(Cn2c(-c3cc(C)c(O)c(C)c3)nc3ccccc32)C1

IC50 [1]: 1580 nM
Structure (SMILES): CC(=O)N1CCC(n2c(-c3cc(C)c(O)c(C)c3)nc3ccccc32)CC1

IC50 [1]: 501 nM
Structure (SMILES): CC(=O)N[C@H]1CC[C@@H](Cn2c(-c3cc(C)c(O)c(C)c3)nc3ccccc32)CC1

IC50 [1]: 501 nM
Structure (SMILES): CC(=O)N1CCC(Cn2c(-c3cc(C)c(O)c(C)c3)nc3ccccc32)CC1

IC50 [1]: 316 nM | IC50 [6]: 39800 nM | Ratio pIC50 [36]: 2.1
Structure (SMILES): COCC(C)n1c(-c2cc(C)c(=O)n(C)c2)nc2ccccc21 (racemic)

IC50 [3]: 126 nM | IC50 [1]: 200 nM | chromatographic logD [2]: 3.2
Structure (SMILES): CNC(=O)c1ccc2c(c1)nc(-c1cc(C)c(O)c(C)c1)n2CC1CCN(C(=O)c2ccccc2)CC1

IC50 [1]: 79.4 nM | IC50 [6]: 50100 nM | Ratio pIC50 [36]: 2.8
Structure (SMILES): Cc1cc(-c2nc3ccccc3n2C[C@H]2CC[C@H](O)CC2)cn(C)c1=O

IC50 [1]: 50.1 nM | IC50 [6]: 39800 nM | Ratio pIC50 [36]: 2.9
Structure (SMILES): Cc1cc(-c2nc3ccccc3n2CCC2CCOCC2)cn(C)c1=O

IC50 [1]: 50.1 nM | IC50 [6]: 63100 nM | Stability [7]: 0.99 mL/min/g | Stability [21]: < 0.4 mL/min/g | Ratio pIC50 [36]: 3.1
Structure (SMILES): Cc1cc(-c2nc3ccccc3n2CC2CC3(COC3)C2)cn(C)c1=O

IC50 [1]: 39.8 nM | IC50 [6]: > 100000 nM | Stability [7]: < 0.46 mL/min/g | Stability [8]: 1.1 mL/min/g | fraction unbound [9]: 0.59 | CL free [10]: 63 mL/min/kg | clearance [11]: 37 mL/min/kg | Vd [12]: 2.1 L/kg | half-life [13]: 3.2 h | Stability [14]: < 0.37 mL/min/g | Stability [15]: < 1.3 mL/min/g | fraction unbound [16]: 0.57 | clearance [38]: 5 mL/min/kg | CL free [17]: 9 mL/min/kg | Vd [18]: 0.8 L/kg | half-life [19]: 1.7 h | bioavailability [20]: 46% | Stability [21]: < 0.4 mL/min/g | Stability [22]: < 0.87 mL/min/g | fraction unbound [23]: 0.37 | Ratio pIC50 [36]: > 3.7 | bioavailability [35]: 46%
Structure (SMILES): COCC(COC)n1c(-c2cc(C)c(=O)n(C)c2)nc2ccccc21

IC50 [1]: 10 nM | chromatographic logD [2]: 2.3 | IC50 [5]: 12.6 nM | solubility at 4 h [37]: > 1000 µg/mL
Structure (SMILES): Cc1cc(-c2nc3cc(N4CCOCC4)ccc3n2CC2CCOCC2)cn(C)c1=O
